Experimental data as given in ChEMBL document CHEMBL4373717, “Coumarin-containing hybrids and their anticancer activities” (Eur J Med Chem, 2019).
Converted amounts (≈) assume the structure as drawn.

What was measured:
HepG2 [1] = assay: Cytotoxicity against human HepG2 cells assessed as reduction in cell viability; type: functional, cell-based
DLD-1 = assay: Cytotoxicity against human DLD1 cells assessed as reduction in cell viability; type: functional, cell-based
BHK-21 = assay: Cytotoxicity against BHK21 cells assessed as reduction in cell viability after 48 hrs by SRB assay; type: cell-based; settings: Mesocricetus auratus, BHK-21, 48 h
NCI-H157 = assay: Cytotoxicity against human NCI-H157 cells assessed as reduction in cell viability after 48 hrs by SRB assay; type: functional, cell-based; settings: NCI-H157, 48 h
HeLa [2] = assay: Antiproliferative activity against human HeLa cells by MTT assay; type: functional, cell-based
K562 = assay: Anticancer activity against human K562 cells by MTT assay; type: functional, cell-based
MDA-MB-231 = assay: Anticancer activity against human MDA-MB-231 cells by MTT assay; type: functional, cell-based
HeLa [3] = assay: Anticancer activity against human HeLa cells by MTT assay; type: functional, cell-based
A549 [4] = assay: Anticancer activity against human A549 cells by MTT assay; type: functional, cell-based
DU-145 = assay: Cytotoxicity against human DU145 cells assessed as reduction in cell viability by SRB assay; type: functional, cell-based
HepG2 [5] = assay: Cytotoxicity against human HepG2 cells assessed as reduction in cell viability by SRB assay; type: functional, cell-based
[6] = Cytotoxicity against human MCF7/DX cells assessed as reduction in cell viability by SRB assay; type: functional, cell-based
A549 [7] = assay: Cytotoxicity against human A549 cells assessed as reduction in cell viability by SRB assay; type: functional, cell-based
SK-OV-3 = assay: Cytotoxicity against human SKOV3 cells assessed as reduction in cell viability by SRB assay; type: functional, cell-based
MCF7 [8] = assay: Cytotoxicity against human MCF7 cells assessed as reduction in cell viability by SRB assay; type: functional, cell-based
HeLa [9] = assay: Cytotoxicity against human HeLa cells assessed as reduction in cell viability by SRB assay; type: functional, cell-based
MCF7 [10] = assay: Cytotoxicity against human MCF7 cells assessed as reduction in cell viability by MTT assay; type: functional, cell-based; settings: Homo sapiens, MCF7

In the case of `C/C(=N\Nc1ncc(C(=O)c2cc3ccccc3oc2=O)s1)c1ccc(C)cc1`, the EC50 (HepG2 [1]) is reported as 3.7 to 9.54 µg/mL (≈ 9.17 to 23.6 µM) and the EC50 (DLD-1) is reported as 3.7 to 9.54 µg/mL (≈ 9.17 to 23.6 µM).

Work on `CC(=O)c1ccc(C2=Nn3c(nnc3-c3cc4ccccc4oc3=O)SC2)cc1` yielded an IC50 (BHK-21) of 1.01 to 5.72 µM and an IC50 (NCI-H157) of 1.01 to 5.72 µM.

With `CCOC(=O)c1sc(N/N=C(\C)c2cc3cc(Cl)ccc3oc2=O)nc1C` the IC50 (HeLa [2]) was 0.0091 to 0.569 µM.

Work on `Cc1ccc(-n2nc(C)n(-n3c(-c4cc5ccccc5oc4=O)cs/c3=N\c3ccccc3)c2=O)cc1` yielded an IC50 (K562) of 0.16 to 1.12 µg/mL (≈ 0.315 to 2.21 µM), an IC50 (MDA-MB-231) of 0.16 to 1.12 µg/mL (≈ 0.315 to 2.21 µM) and an IC50 (HeLa [3]) of 0.16 to 1.12 µg/mL (≈ 0.315 to 2.21 µM). For the same compound, the IC50 (A549 [4]) was 0.16 to 1.12 µg/mL (≈ 0.315 to 2.21 µM).

With `Cc1ccc2c(c1)C(=O)C(=O)N2CCOCCOc1ccc2c(C)cc(=O)oc2c1` the IC50 (DU-145) was 10.3 to 50 µM, the IC50 (HepG2 [5]) was 10.3 to 50 µM and the IC50 [6] was 10.3 to 50 µM. It also gave an IC50 (A549 [7]) of 10.3 to 50 µM, an IC50 (SK-OV-3) of 10.3 to 50 µM and an IC50 (MCF7 [8]) of 10.3 to 50 µM. The IC50 (HeLa [9]) was 10.3 to 50 µM.

For `Cc1cc(=O)oc2cc(OCCOCCN3C(=O)C(=O)c4cc(F)ccc43)ccc12`, the IC50 (DU-145) was 10.3 to 50 µM, the IC50 (HepG2 [5]) was 10.3 to 50 µM and the IC50 [6] was 10.3 to 50 µM. For the same compound, the IC50 (A549 [7]) was 10.3 to 50 µM, the IC50 (SK-OV-3) was 10.3 to 50 µM and the IC50 (MCF7 [8]) was 10.3 to 50 µM. For the same compound, the IC50 (HeLa [9]) was 10.3 to 50 µM.

Compound `CCNc1ncc(C(=O)c2cc3ccccc3oc2=O)s1` has an IC50 (HepG2 [1]) of 5.66 to 100 µg/mL (≈ 18.8 to 333 µM) and an IC50 (DLD-1) of 5.66 to 100 µg/mL (≈ 18.8 to 333 µM).

With `CO/N=C1\C(=O)N(CCOCCOc2ccc3c(C)cc(=O)oc3c2)c2ccc(C)cc21` the IC50 (DU-145) was 10.3 to 50 µM, the IC50 (HepG2 [5]) was 10.3 to 50 µM and the IC50 [6] was 10.3 to 50 µM. The IC50 (A549 [7]) was 10.3 to 50 µM, the IC50 (SK-OV-3) was 10.3 to 50 µM and the IC50 (MCF7 [8]) was 10.3 to 50 µM. It also gave an IC50 (HeLa [9]) of 10.3 to 50 µM.

Compound `Cc1nn(-c2ccc(Br)cc2)c(=O)n1-n1c(-c2cc3ccccc3oc2=O)cs/c1=N\c1ccc(Cl)cc1` has an IC50 (K562) of 0.16 to 1.12 µg/mL (≈ 0.264 to 1.85 µM), an IC50 (MDA-MB-231) of 0.16 to 1.12 µg/mL (≈ 0.264 to 1.85 µM) and an IC50 (HeLa [3]) of 0.16 to 1.12 µg/mL (≈ 0.264 to 1.85 µM). The IC50 (A549 [4]) was 0.16 to 1.12 µg/mL (≈ 0.264 to 1.85 µM).

With `CO/N=C1\C(=O)N(CCOCCOc2ccc3c(C)cc(=O)oc3c2)c2ccc(F)cc21` the IC50 (DU-145) was 10.3 to 50 µM, the IC50 (HepG2 [5]) was 10.3 to 50 µM and the IC50 [6] was 10.3 to 50 µM. It also gave an IC50 (A549 [7]) of 10.3 to 50 µM, an IC50 (SK-OV-3) of 10.3 to 50 µM and an IC50 (MCF7 [8]) of 10.3 to 50 µM. The IC50 (HeLa [9]) was 10.3 to 50 µM.

For `Cc1cc(=O)oc2cc(/N=N/c3ccccc3)c(O)c(/N=N/c3ccccc3)c12`, the IC50 (MCF7 [10]) was 1.87 µg/mL (≈ 4.86 µM).

For `Cc1cc(=O)oc2cc(OCCOCCN3C(=O)/C(=N\O)c4ccccc43)ccc12`, the IC50 (DU-145) was 10.3 to 50 µM, the IC50 (HepG2 [5]) was 10.3 to 50 µM and the IC50 [6] was 10.3 to 50 µM. It also gave an IC50 (A549 [7]) of 10.3 to 50 µM, an IC50 (SK-OV-3) of 10.3 to 50 µM and an IC50 (MCF7 [8]) of 10.3 to 50 µM. For the same compound, the IC50 (HeLa [9]) was 10.3 to 50 µM.

Compound `O=c1oc2ccccc2cc1-c1nnc2n1N=C(c1ccc([N+](=O)[O-])cc1)CS2` has an IC50 (BHK-21) of 1.01 to 5.72 µM and an IC50 (NCI-H157) of 1.01 to 5.72 µM.

With `CO/N=C1\C(=O)N(CCOCCOc2ccc3c(C)cc(=O)oc3c2)c2ccccc21` the IC50 (DU-145) was 10.3 to 50 µM, the IC50 (HepG2 [5]) was 10.3 to 50 µM and the IC50 [6] was 10.3 to 50 µM. The IC50 (A549 [7]) was 10.3 to 50 µM, the IC50 (SK-OV-3) was 10.3 to 50 µM and the IC50 (MCF7 [8]) was 10.3 to 50 µM. The IC50 (HeLa [9]) was 10.3 to 50 µM.

`COc1ccc(C2=Nn3c(nnc3-c3cc4ccccc4oc3=O)SC2)cc1` gave an IC50 (BHK-21) of 1.01 to 5.72 µM and an IC50 (NCI-H157) of 1.01 to 5.72 µM.

In the case of `O=c1oc2ccccc2cc1-c1nnc2n1N=C(c1ccc(F)cc1)CS2`, the IC50 (BHK-21) is reported as 1.01 to 5.72 µM and the IC50 (NCI-H157) is reported as 1.01 to 5.72 µM.

For `C/C(=N\Nc1ncc(C(=O)c2cc3ccccc3oc2=O)s1)c1ccccc1`, the EC50 (HepG2 [1]) was 3.7 to 9.54 µg/mL (≈ 9.5 to 24.5 µM) and the EC50 (DLD-1) was 3.7 to 9.54 µg/mL (≈ 9.5 to 24.5 µM).

Compound `CNc1ncc(C(=O)c2cc3ccccc3oc2=O)s1` has an IC50 (HepG2 [1]) of 5.66 to 100 µg/mL (≈ 19.8 to 349 µM) and an IC50 (DLD-1) of 5.66 to 100 µg/mL (≈ 19.8 to 349 µM).

`O=c1oc2ccccc2cc1-c1nnc2n1N=C(c1ccc(Cl)c(Cl)c1)CS2` gave an IC50 (BHK-21) of 1.39 µM and an IC50 (NCI-H157) of 1.73 µM.

`O=C(c1cnc(Nc2ccc(Br)cc2)s1)c1cc2ccccc2oc1=O` gave an IC50 (HepG2 [1]) of 5.66 to 100 µg/mL (≈ 13.2 to 234 µM) and an IC50 (DLD-1) of 5.66 to 100 µg/mL (≈ 13.2 to 234 µM).

Compound `COc1ccc(/N=c2\scc(-c3cc4ccccc4oc3=O)n2-n2c(C)nn(-c3ccccc3)c2=O)cc1` has an IC50 (K562) of 0.16 to 1.12 µg/mL (≈ 0.306 to 2.14 µM), an IC50 (MDA-MB-231) of 0.16 to 1.12 µg/mL (≈ 0.306 to 2.14 µM) and an IC50 (HeLa [3]) of 0.16 to 1.12 µg/mL (≈ 0.306 to 2.14 µM). For the same compound, the IC50 (A549 [4]) was 0.16 to 1.12 µg/mL (≈ 0.306 to 2.14 µM).

In the case of `O=C(c1cnc(Nc2ccccc2)s1)c1cc2ccccc2oc1=O`, the IC50 (HepG2 [1]) is reported as 5.66 to 100 µg/mL (≈ 16.2 to 287 µM) and the IC50 (DLD-1) is reported as 5.66 to 100 µg/mL (≈ 16.2 to 287 µM).
